{"source": "paper PMC9851200", "about": "“Multiparameter phenotypic screening for endogenous TFEB and TFE3 translocation identifies novel chemical series modulating lysosome function” (Autophagy, 2022)", "origin": "cited, not measured here", "design_in_all_cases": "method as in original PKIS2 published data", "key": {"[1]": {"molecular_target": "T1, kinases (KINOMEscan panel) (Homo sapiens, UniProt O15197)", "T1 sequence (O15197 32-1021)": "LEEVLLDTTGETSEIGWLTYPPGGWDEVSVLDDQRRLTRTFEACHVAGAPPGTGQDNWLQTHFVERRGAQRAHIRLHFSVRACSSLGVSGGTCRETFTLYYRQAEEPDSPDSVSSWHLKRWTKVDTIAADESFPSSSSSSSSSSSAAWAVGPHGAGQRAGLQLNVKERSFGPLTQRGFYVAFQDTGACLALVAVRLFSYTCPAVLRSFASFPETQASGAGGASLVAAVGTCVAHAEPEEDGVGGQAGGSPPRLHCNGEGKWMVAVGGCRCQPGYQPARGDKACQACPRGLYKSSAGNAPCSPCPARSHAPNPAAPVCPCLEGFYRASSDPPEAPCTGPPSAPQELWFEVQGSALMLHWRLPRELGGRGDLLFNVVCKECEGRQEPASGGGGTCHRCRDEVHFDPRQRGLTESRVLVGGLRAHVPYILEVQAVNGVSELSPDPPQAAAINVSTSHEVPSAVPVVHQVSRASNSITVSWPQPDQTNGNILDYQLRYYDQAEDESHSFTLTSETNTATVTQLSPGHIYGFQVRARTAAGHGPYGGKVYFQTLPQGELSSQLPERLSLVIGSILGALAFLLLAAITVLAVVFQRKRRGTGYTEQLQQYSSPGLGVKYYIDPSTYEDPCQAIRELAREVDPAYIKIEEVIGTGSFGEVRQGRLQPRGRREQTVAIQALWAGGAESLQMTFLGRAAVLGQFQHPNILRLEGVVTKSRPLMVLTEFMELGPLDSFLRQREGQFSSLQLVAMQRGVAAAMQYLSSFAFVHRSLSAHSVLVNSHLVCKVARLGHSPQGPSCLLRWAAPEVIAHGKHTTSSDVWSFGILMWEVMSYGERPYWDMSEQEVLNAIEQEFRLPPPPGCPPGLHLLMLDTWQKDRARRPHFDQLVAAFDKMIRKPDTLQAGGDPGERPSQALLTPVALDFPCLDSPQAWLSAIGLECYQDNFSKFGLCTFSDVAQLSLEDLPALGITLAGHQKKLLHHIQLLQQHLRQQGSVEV", "details": "kinase EPHB6; Published KINOMEscan; ref original PKIS2 published data; cited from earlier work"}, "[2]": {"molecular_target": "kinases (KINOMEscan panel) (Homo sapiens, UniProt P49336)", "sequence (P49336 whole entry)": "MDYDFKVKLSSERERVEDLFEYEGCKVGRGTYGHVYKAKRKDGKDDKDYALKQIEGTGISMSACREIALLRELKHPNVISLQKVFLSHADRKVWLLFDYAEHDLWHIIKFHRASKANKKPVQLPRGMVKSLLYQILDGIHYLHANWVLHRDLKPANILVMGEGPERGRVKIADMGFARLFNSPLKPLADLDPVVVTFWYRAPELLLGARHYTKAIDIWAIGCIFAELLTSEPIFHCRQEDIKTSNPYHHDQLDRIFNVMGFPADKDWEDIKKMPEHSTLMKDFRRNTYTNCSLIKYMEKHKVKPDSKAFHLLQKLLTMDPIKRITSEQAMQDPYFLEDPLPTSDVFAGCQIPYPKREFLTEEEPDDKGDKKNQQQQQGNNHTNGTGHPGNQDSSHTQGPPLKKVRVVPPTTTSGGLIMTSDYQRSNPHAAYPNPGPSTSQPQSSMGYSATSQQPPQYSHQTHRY", "details": "CDK8; Published KINOMEscan; ref original PKIS2 published data; cited from earlier work"}, "[3]": {"molecular_target": "kinases (KINOMEscan panel) (Homo sapiens, UniProt P51451)", "sequence (P51451 whole entry)": "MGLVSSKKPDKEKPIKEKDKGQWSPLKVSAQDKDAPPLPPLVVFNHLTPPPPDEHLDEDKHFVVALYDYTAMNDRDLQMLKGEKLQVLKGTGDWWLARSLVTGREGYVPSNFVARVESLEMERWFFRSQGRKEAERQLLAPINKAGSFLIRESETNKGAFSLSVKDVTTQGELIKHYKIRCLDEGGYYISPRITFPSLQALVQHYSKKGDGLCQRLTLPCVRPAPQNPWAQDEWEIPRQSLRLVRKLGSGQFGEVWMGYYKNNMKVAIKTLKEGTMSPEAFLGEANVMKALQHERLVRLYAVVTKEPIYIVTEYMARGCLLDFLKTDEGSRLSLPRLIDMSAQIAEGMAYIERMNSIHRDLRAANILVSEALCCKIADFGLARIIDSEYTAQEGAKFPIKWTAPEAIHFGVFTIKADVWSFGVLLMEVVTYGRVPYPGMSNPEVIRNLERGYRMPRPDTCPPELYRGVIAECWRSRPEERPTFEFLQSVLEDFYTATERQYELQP", "details": "kinase BLK; Published KINOMEscan; ref original PKIS2 published data; cited from earlier work"}, "[4]": {"molecular_target": "kinases (KINOMEscan panel) (Homo sapiens, UniProt Q00535)", "sequence (Q00535 whole entry)": "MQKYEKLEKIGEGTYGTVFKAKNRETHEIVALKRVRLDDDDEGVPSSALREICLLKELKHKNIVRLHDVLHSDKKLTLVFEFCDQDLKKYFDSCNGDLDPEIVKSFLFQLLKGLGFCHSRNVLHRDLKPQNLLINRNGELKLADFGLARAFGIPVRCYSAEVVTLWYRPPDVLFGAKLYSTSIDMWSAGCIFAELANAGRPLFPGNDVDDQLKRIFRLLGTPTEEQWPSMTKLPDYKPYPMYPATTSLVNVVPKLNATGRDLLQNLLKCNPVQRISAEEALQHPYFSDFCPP", "details": "Published KINOMEscan; ref original PKIS2 published data; cited from earlier work"}, "[5]": {"molecular_target": "kinases (KINOMEscan panel) (Homo sapiens, UniProt Q04759)", "sequence (Q04759 whole entry)": "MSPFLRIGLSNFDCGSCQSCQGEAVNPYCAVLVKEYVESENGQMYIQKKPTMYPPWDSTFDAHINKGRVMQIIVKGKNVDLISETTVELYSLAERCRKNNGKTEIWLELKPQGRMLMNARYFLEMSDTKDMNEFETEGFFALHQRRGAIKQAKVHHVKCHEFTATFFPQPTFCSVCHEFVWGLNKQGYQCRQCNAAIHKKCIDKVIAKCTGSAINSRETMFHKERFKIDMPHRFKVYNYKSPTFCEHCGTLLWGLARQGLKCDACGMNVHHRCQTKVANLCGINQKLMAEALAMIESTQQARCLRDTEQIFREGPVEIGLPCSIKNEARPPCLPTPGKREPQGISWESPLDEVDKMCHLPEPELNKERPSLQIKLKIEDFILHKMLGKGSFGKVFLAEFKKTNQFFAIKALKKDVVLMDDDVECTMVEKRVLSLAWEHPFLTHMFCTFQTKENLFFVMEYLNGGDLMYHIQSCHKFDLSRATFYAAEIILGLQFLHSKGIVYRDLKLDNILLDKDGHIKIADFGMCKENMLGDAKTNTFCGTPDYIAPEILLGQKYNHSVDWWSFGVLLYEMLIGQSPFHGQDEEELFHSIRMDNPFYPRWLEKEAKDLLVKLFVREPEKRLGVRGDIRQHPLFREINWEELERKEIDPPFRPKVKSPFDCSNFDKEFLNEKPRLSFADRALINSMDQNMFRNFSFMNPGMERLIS", "details": "kinase PRKCQ; Published KINOMEscan; ref original PKIS2 published data; cited from earlier work"}, "[6]": {"molecular_target": "kinases (KINOMEscan panel) (Homo sapiens, UniProt Q8NEV4)", "sequence (Q8NEV4 whole entry)": "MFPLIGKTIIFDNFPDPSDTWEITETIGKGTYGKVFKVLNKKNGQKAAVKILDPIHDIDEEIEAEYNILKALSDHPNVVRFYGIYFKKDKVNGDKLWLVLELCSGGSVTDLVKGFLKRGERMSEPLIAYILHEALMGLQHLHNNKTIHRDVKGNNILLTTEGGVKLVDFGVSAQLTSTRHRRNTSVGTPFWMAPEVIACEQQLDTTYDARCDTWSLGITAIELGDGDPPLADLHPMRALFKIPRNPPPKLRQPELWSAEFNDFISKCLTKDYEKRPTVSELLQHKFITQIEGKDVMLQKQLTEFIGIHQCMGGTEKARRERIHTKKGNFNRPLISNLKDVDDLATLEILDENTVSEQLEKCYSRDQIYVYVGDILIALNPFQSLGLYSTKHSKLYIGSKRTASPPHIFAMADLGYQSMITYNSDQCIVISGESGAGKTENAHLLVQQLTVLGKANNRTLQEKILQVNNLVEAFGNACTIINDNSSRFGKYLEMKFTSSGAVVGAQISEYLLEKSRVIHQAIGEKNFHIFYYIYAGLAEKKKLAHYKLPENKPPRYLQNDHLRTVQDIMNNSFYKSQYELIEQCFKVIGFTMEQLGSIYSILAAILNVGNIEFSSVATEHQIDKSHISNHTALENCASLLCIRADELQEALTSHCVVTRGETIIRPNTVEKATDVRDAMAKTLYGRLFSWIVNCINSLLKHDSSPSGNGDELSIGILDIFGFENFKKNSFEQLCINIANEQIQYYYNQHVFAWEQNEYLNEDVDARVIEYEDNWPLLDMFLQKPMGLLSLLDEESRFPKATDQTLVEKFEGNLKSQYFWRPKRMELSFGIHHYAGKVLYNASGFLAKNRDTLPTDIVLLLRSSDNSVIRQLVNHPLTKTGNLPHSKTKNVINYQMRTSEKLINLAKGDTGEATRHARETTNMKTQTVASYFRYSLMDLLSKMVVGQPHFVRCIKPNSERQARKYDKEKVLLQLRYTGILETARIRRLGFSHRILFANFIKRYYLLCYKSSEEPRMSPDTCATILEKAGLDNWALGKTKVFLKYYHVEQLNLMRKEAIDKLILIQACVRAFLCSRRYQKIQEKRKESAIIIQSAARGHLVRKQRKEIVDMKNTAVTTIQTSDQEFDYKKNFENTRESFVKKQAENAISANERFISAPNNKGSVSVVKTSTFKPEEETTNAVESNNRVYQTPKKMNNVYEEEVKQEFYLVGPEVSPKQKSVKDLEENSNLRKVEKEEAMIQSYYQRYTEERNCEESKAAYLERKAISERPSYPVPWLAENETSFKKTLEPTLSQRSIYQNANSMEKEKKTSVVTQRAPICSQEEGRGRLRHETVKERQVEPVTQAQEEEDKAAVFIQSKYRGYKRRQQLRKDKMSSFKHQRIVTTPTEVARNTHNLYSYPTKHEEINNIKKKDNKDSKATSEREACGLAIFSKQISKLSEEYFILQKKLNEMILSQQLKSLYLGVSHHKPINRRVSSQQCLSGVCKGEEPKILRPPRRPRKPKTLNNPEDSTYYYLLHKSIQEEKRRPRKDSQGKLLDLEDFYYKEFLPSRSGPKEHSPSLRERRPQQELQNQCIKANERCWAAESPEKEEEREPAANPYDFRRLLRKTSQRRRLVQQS", "details": "kinase MYO3A; Published KINOMEscan; ref original PKIS2 published data; cited from earlier work"}, "[7]": {"molecular_target": "T2, kinases (KINOMEscan panel) (Homo sapiens, UniProt Q8TBX8)", "T2 sequence (Q8TBX8 1-421)": "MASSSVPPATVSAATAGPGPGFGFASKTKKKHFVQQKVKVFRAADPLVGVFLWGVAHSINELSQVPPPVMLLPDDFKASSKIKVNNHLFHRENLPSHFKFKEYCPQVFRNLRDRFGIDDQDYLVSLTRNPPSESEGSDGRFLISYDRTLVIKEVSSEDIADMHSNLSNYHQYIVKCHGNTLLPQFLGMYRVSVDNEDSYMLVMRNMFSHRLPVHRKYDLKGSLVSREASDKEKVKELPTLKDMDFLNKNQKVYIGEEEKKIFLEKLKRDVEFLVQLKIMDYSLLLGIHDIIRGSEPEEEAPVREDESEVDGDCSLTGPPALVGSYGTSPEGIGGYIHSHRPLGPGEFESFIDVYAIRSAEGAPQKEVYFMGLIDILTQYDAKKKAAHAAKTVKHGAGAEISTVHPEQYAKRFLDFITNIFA", "details": "PIP4K2C; Published KINOMEscan; ref original PKIS2 published data; cited from earlier work"}, "[8]": {"molecular_target": "T3, kinases (KINOMEscan panel) (Homo sapiens, UniProt Q8WTQ7)", "T3 sequence (Q8WTQ7 1-553)": "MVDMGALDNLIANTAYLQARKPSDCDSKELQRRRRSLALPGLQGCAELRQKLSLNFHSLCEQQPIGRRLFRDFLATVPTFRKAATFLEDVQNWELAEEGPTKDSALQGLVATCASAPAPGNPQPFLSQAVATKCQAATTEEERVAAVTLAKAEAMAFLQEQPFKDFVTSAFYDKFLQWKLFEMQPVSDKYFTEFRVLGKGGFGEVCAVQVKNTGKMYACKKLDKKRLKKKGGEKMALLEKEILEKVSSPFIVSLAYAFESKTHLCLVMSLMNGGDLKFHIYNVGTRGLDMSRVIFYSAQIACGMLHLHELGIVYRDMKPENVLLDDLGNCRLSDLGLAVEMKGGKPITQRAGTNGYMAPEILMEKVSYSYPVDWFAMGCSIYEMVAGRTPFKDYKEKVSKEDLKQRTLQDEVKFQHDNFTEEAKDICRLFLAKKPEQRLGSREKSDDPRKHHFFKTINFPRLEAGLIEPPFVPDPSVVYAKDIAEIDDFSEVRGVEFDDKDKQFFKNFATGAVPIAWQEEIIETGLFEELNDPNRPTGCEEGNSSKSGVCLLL", "details": "kinase GRK7; Published KINOMEscan; ref original PKIS2 published data; cited from earlier work"}, "[9]": {"molecular_target": "kinases (KINOMEscan panel) (Homo sapiens, UniProt Q9H3Y6)", "sequence (Q9H3Y6 whole entry)": "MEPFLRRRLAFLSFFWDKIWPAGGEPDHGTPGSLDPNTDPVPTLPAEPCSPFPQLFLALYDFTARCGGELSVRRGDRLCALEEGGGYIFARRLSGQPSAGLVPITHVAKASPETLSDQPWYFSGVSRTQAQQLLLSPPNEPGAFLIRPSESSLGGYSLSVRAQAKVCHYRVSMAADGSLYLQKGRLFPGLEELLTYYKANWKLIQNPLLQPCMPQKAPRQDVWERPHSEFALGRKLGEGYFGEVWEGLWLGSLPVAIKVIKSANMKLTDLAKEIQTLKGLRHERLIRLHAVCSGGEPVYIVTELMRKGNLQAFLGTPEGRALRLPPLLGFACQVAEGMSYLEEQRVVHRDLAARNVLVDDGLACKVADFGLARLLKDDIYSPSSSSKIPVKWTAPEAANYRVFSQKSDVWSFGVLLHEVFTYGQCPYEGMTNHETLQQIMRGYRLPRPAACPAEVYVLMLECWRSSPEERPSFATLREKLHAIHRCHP", "details": "Published KINOMEscan; ref original PKIS2 published data; cited from earlier work"}, "[10]": {"molecular_target": "kinases (KINOMEscan panel) (Homo sapiens, UniProt Q9Y243)", "sequence (Q9Y243 whole entry)": "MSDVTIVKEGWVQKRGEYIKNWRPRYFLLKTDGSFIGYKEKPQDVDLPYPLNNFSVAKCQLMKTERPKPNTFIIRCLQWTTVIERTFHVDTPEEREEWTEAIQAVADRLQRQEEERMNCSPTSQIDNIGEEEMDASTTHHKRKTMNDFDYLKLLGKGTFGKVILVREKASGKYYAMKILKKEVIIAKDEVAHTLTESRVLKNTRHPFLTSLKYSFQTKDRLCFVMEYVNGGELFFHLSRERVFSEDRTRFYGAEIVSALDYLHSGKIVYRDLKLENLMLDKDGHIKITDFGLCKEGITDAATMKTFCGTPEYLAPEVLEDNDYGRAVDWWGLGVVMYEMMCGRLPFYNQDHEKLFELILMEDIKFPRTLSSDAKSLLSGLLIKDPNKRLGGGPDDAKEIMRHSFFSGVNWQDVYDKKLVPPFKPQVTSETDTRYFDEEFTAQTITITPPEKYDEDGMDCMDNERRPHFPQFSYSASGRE", "details": "kinase AKT3; Published KINOMEscan; ref original PKIS2 published data; cited from earlier work"}}}
{"smiles": "Cc1cccc(-c2nc(Nc3ccncc3)c3ccccc3n2)n1", "note": "[NK215]", "values": [{"measurement": "KINOMEscan EPHB6", "setting": "[1]", "value": 0}, {"measurement": "KINOMEscan CDK8", "setting": "[2]", "value": 65}, {"measurement": "KINOMEscan BLK", "setting": "[3]", "value": 1}, {"measurement": "KINOMEscan CDK5", "setting": "[4]", "value": 0}, {"measurement": "KINOMEscan PRKCQ", "setting": "[5]", "value": 0}, {"measurement": "KINOMEscan MYO3A", "setting": "[6]", "value": 0}, {"measurement": "KINOMEscan PIP4K2C", "setting": "[7]", "value": 18}, {"measurement": "KINOMEscan GRK7", "setting": "[8]", "value": 0}, {"measurement": "KINOMEscan SRMS", "setting": "[9]", "value": 0}, {"measurement": "KINOMEscan AKT3", "setting": "[10]", "value": 0}]}
